Test results taken from US7524964B2, “Tetrahydrothiopyrano pyrazole cannabinoid modulators” (Janssen Pharmaceutica NV, priority 2005, dated 2009).
Read-outs that look alike come from different tables or passages of the source.

How the values were obtained:
human CB-2 receptor = molecular target: T1, human CB-2 receptor (Homo sapiens, UniProt P34972); assay: Binding assay, cannabinoid CB2 receptor ([3H]-CP-55,940 displacement); settings: read-out: CB2 binding percent inhibition; for inhibition at 1 µM: test concentration 1 μM (superscript b)
T1 construct: expressed in transfected cells; host or cells: SK-N-MC cells, pcDNA3 CB-2 (human), semi-purified membranes
T1 sequence (P34972 whole entry): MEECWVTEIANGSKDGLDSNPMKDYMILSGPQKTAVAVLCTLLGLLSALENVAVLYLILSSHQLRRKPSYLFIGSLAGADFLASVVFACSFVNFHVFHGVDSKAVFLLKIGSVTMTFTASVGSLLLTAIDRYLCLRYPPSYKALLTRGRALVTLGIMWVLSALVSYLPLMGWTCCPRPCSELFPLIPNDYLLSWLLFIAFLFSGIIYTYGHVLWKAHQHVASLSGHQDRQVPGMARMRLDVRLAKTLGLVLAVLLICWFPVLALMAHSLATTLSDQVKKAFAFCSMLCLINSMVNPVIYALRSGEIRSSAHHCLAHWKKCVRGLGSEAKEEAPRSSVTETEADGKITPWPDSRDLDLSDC
In short: (§1)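 Membranes from SK-N-MC cells stably expressing human CB-1 or CB-2 were incubated 90 min at 30° C with 0.2 nM [3H]-CP-55,940 in pH 7.5 Tris buffer with fatty-acid-free BSA; 10 uM WIN 55,212 defined non-specific binding. Filter-bound counts gave IC50 by linear regression, or percent inhibition at 0.2, 1 or 10 μM.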

human CB1 receptor = human CB1 receptor (Homo sapiens, UniProt P21554); assay: Binding assay, cannabinoid CB1 receptor ([3H]-CP-55,940 displacement); parameters: expressed in transfected cells; host or cells: SK-N-MC cells, pcDNA3 CB-1 (human), semi-purified membranes; settings: for inhibition at 1 µM: test concentration 1 μM (superscript b); for inhibition at 0.2 µM: test concentration 0.2 μM (superscript a)
human CB1 receptor, sequence (P21554 whole entry): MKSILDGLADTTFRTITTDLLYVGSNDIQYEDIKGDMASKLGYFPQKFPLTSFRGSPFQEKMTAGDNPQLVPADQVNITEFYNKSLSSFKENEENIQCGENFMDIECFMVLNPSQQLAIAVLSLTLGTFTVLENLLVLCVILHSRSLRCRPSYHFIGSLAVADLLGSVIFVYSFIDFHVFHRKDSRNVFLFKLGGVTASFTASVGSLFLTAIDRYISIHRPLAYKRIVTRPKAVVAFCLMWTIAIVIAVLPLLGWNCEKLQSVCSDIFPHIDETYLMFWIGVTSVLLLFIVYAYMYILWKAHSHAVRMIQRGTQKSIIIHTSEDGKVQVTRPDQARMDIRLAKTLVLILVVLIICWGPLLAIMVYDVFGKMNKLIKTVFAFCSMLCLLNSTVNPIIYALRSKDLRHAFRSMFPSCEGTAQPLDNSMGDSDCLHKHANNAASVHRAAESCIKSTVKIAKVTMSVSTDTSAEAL
In short: as §1

[1] = test concentration 0.2 μM (superscript a)
[2] = read-out: CB1 binding percent inhibition

| Structure (SMILES) | inhibition at 0.2 µM (human CB-2 receptor; [1]) [%] | IC50 (human CB1 receptor) [nM] | inhibition at 0.2 µM (human CB1 receptor; [2]) [%] | further results |
| --- | --- | --- | --- | --- |
| O=C(NN1CCCCC1)c1nn(-c2ccc(Cl)cc2Cl)c2c1CS(=O)(=O)C/C2=C\c1ccc(F)cc1 [Cpd 81, (7Z)-1-(2,4-dichloro-phenyl)-7-(4-fluoro-benzylidene)-5,5-dioxo-4,5,6,7-tetrahydro-1H-5λ^6-thiopyrano[4,3-c]pyrazole-3-carboxylic acid piperidin-1-ylamide] | 24 | 32 |  |  |
| C[C@H](NS(=O)(=O)/C=C/c1nn(Cc2ccccc2)c2c1CS(=O)(=O)CC2)c1ccccc1 [Cpd 18, (E)-2-(1-benzyl-5,5-dioxo-4,5,6,7-tetrahydro-1H-5λ^6-thiopyrano[4,3-c]pyrazol-3-yl)-ethenesulfonic acid [(1S)-1-phenyl-ethyl]-amide] |  |  |  | inhibition at 1 µM (human CB-2 receptor): 40%; inhibition at 1 µM (human CB1 receptor; [2]): 0% |
| O=C(c1nn(-c2ccc(Cl)cc2)c2c1CS(=O)(=O)C/C2=C\c1ccc(F)cc1)N1CCCCC1 [Cpd 98, (7Z)-[1-(4-chloro-phenyl)-7-(4-fluoro-benzylidene)-5,5-dioxo-4,5,6,7-tetrahydro-1H-5λ^6-thiopyrano[4,3-c]pyrazol-3-yl]-piperidin-1-yl-methanone] | 14 |  | 51 |  |
| O=C(N[C@@H]1CCC[C@H]1O)c1nn(-c2ccc(Cl)cc2Cl)c2c1CSC/C2=C\c1ccc(F)cc1 [Cpd 60, (7Z)-1-(2,4-dichloro-phenyl)-7-(4-fluoro-benzylidene)-1,4,6,7-tetrahydro-thiopyrano[4,3-c]pyrazole-3-carboxylic acid [(1R,2R)-2-hydroxy-cyclopentyl]-amide] | 17 |  | 60 |  |
| O=C(NN1CC2CCCC2C1)c1nn(-c2ccc(Cl)cc2Cl)c2c1CS(=O)(=O)C/C2=C\c1ccc(Cl)o1 (stereo not shown) [Cpd 121, (7Z)-7-(5-chloro-furan-2-ylmethylene)-1-(2,4-dichloro-phenyl)-5,5-dioxo-4,5,6,7-tetrahydro-1H-5λ^6-thiopyrano[4,3-c]pyrazole-3-carboxylic acid (hexahydro-cyclopenta[c]pyrrol-2-yl)-amide] | 15 | 48 |  |  |
| O=C(c1nn(-c2ccc(Cl)cc2Cl)c2c1CSC/C2=C\c1ccc(F)cc1)N1CCCCC1 [Cpd 55, (7Z)-[1-(2,4-dichloro-phenyl)-7-(4-fluoro-benzylidene)-1,4,6,7-tetrahydro-thiopyrano[4,3-c]pyrazol-3-yl]-piperidin-1-yl-methanone] | 10 |  | 52 |  |
| O=C(NN1CCCC1)c1nn(-c2ccc(Cl)cc2)c2c1CSC/C2=C\c1ccc(F)cc1 [Cpd 102, (7Z)-1-(4-chloro-phenyl)-7-(4-fluoro-benzylidene)-1,4,6,7-tetrahydro-thiopyrano[4,3-c]pyrazole-3-carboxylic acid pyrrolidin-1-ylamide] | 23 |  | 76 |  |
| CCOC(=O)[C@@H]1C2CCC(C2)[C@@H]1NC(=O)c1nn(-c2ccc(F)cc2F)c2c1CS(=O)(=O)C[C@@H]2Cc1cccc(F)c1 (stereo partly drawn) [Cpd 49, (2R,3S)-3-{[1-(2,4-difluoro-phenyl)-(7R)-(3-fluoro-benzyl)-5,5-dioxo-4,5,6,7-tetrahydro-1H-5λ^6-thiopyrano[4,3-c]pyrazole-3-carbonyl]-amino}-bicyclo[2.2.1]heptane-2-carboxylic acid ethyl ester] | 6 |  | 33 |  |
| C[C@H](NS(=O)(=O)/C=C/c1nn(-c2ccc(Cl)cc2Cl)c2c1CSCC2Cc1cccc(Cl)c1)c1ccccc1 (stereo partly drawn) [Cpd 46, (E)-2-[7-(3-chloro-benzyl)-1-(2,4-dichloro-phenyl)-1,4,6,7-tetrahydro-thiopyrano[4,3-c]pyrazol-3-yl]-ethenesulfonic acid [(1S)-1-phenyl-ethyl]-amide] | 18 |  | 43 |  |
| C[C@H](NC(=O)/C=C/c1nn(Cc2ccccc2)c2c1C[S+]([O-])CC2)c1ccccc1 (stereo partly drawn) [Cpd 34, (2E)-3-(1-benzyl-5-oxo-4,5,6,7-tetrahydro-1H-5λ^4-thiopyrano[4,3-c]pyrazol-3-yl)-N-[(1S)-1-phenyl-ethyl]-acrylamide] |  |  |  | inhibition at 10 µM (human CB-2 receptor; test concentration 10 μM (superscript c)): 21%; inhibition at 10 µM (human CB1 receptor; test concentration 10 μM (superscript c), read-out: CB1 binding percent inhibition): 11% |
| C[C@@H](NS(=O)(=O)/C=C/c1c2c(nn1Cc1ccccc1)CCS(=O)(=O)C2)c1ccccc1 [Cpd 4, (E)-2-(2-benzyl-5,5-dioxo-4,5,6,7-tetrahydro-2H-5λ^6-thiopyrano[4,3-c]pyrazol-3-yl)-ethenesulfonic acid [(1R)-1-phenyl-ethyl]-amide] |  |  |  | inhibition at 1 µM (human CB-2 receptor): 0%; inhibition at 1 µM (human CB1 receptor; [2]): 12% |
| O=C(NN1CC2CCCC2C1)c1c2c(nn1-c1ccc(Cl)cc1Cl)/C(=C/c1ccc(F)cc1)CSC2 (stereo not shown) [Cpd 92, (7Z)-2-(2,4-dichloro-phenyl)-7-(4-fluoro-benzylidene)-2,4,6,7-tetrahydro-thiopyrano[4,3-c]pyrazole-3-carboxylic acid (hexahydro-cyclopenta[c]pyrrol-2-yl)-amide] | 8 |  | 47 |  |
| C[C@@H](NS(=O)(=O)/C=C/c1nn(Cc2ccccc2)c2c1CSCC2)C1CCCCC1 [Cpd 11, (E)-2-(1-benzyl-1,4,6,7-tetrahydro-thiopyrano[4,3-c]pyrazol-3-yl)-ethenesulfonic acid [(1R)-1-cyclohexyl-ethyl]-amide] |  |  |  | inhibition at 1 µM (human CB-2 receptor): 39%; inhibition at 1 µM (human CB1 receptor; [2]): 29% |
| C[C@@H](NC(=O)c1nn(-c2ccc(Cl)cc2Cl)c2c1CS(=O)(=O)C/C2=C\c1ccc(F)cc1)c1ccccc1 [Cpd 66, (7Z)-1-(2,4-dichloro-phenyl)-7-(4-fluoro-benzylidene)-5,5-dioxo-4,5,6,7-tetrahydro-1H-5λ^6-thiopyrano[4,3-c]pyrazole-3-carboxylic acid [(1R)-1-phenyl-ethyl]-amide] | 24 | 4 |  |  |
| C[C@@H](NC(=O)c1c2c(nn1-c1ccc(Cl)cc1Cl)/C(=C/c1ccc(F)cc1)CS(=O)(=O)C2)c1ccccc1 [Cpd 82, (7Z)-2-(2,4-dichloro-phenyl)-7-(4-fluoro-benzylidene)-5,5-dioxo-4,5,6,7-tetrahydro-2H-5λ^6-thiopyrano[4,3-c]pyrazole-3-carboxylic acid [(1R)-1-phenyl-ethyl]-amide] | 19 | 48 |  |  |
| COC[C@@H]1CCCN1NC(=O)c1nn(-c2ccc(Cl)cc2Cl)c2c1CSC/C2=C\c1ccc(F)cc1 [Cpd 123, (7Z)-1-(2,4-dichloro-phenyl)-7-(4-fluoro-benzylidene)-1,4,6,7-tetrahydro-thiopyrano[4,3-c]pyrazole-3-carboxylic acid [(2S)-2-(methoxymethyl)-pyrrolidin-1-yl]-amide] | 12 |  | 61 |  |
| C[C@@H](NC(=O)c1nn(-c2ccc(Cl)cc2Cl)c2c1C[S+]([O-])C/C2=C\c1ccc(F)cc1)c1ccccc1 (stereo partly drawn) [Cpd 75, (7Z)-1-(2,4-dichloro-phenyl)-7-(4-fluoro-benzylidene)-5-oxo-4,5,6,7-tetrahydro-1H-5λ^4-thiopyrano[4,3-c]pyrazole-3-carboxylic acid [(1R)-1-phenyl-ethyl]-amide] | 2 | 14 |  |  |
| C[C@H](NS(=O)(=O)/C=C/c1nn(Cc2ccccc2)c2c1CS(=O)(=O)CC2)C1CCCCC1 [Cpd 15, (E)-2-(1-benzyl-5,5-dioxo-4,5,6,7-tetrahydro-1H-5λ^6-thiopyrano[4,3-c]pyrazol-3-yl)-ethenesulfonic acid [(1S)-1-cyclohexyl-ethyl]-amide] |  |  |  | inhibition at 1 µM (human CB-2 receptor): 0%; inhibition at 1 µM (human CB1 receptor; [2]): 4% |
| C[C@@H](NC(=O)c1nn(-c2ccc(Cl)cc2Cl)c2c1CSC/C2=C\c1ccc(Br)cc1)c1ccccc1 [Cpd 129, (7Z)-(4-Bromo-benzylidene)-1-(2,4-dichloro-phenyl)-1,4,6,7-tetrahydro-thiopyrano[4,3-c]pyrazole-3-carboxylic acid [(1R)-1-phenyl-ethyl]-amide] |  | 6 |  | inhibition at 0.2 µM (human CB-2 receptor): 26% |
| O=C(NCc1ccccn1)c1nn(-c2ccc(Cl)cc2Cl)c2c1CSC/C2=C\c1ccc(F)cc1 [Cpd 72, (7Z)-1-(2,4-dichloro-phenyl)-7-(4-fluoro-benzylidene)-1,4,6,7-tetrahydro-thiopyrano[4,3-c]pyrazole-3-carboxylic acid (pyridin-2-ylmethyl)-amide] | 10 |  | 48 |  |
| CN1CCN(NC(=O)c2nn(-c3ccc(Cl)cc3Cl)c3c2CS(=O)(=O)C/C3=C\c2ccc(F)cc2)CC1 [Cpd 109, (7Z)-1-(2,4-dichloro-phenyl)-7-(4-fluoro-benzylidene)-5,5-dioxo-4,5,6,7-tetrahydro-1H-5λ^6-thiopyrano[4,3-c]pyrazole-3-carboxylic acid (4-methyl-piperazin-1-yl)-amide] | 6 |  | 4 |  |
| O=C(NN1CC2CCCC2C1)c1nn(-c2ccc(Cl)cc2Cl)c2c1CSC/C2=C\c1ccc(F)cc1 (stereo not shown) [Cpd 116, (7Z)-1-(2,4-dichloro-phenyl)-7-(4-fluoro-benzylidene)-1,4,6,7-tetrahydro-thiopyrano[4,3-c]pyrazole-3-carboxylic acid (hexahydro-cyclopenta[c]pyrrol-2-yl)-amide] | 18 | 11 |  |  |
| O=C(NN1CCCCC1)c1nn(-c2ccc(Cl)cc2Cl)c2c1CSC/C2=C\c1ccc(F)cc1 [Cpd 54, (7Z)-1-(2,4-dichloro-phenyl)-7-(4-fluoro-benzylidene)-1,4,6,7-tetrahydro-thiopyrano[4,3-c]pyrazole-3-carboxylic acid piperidin-1-ylamide] | 25 | 34 |  |  |
